In patent EP0181129B1, “N6-substituted deoxyribose analogs of adenosines” (WARNER-LAMBERT COMPANY, priority 1984, dated 1986):
Read-outs that look alike come from different tables or passages of the source.

What was measured:
adenosine A1 receptor = target: T1, adenosine A1 receptor (Rattus norvegicus, UniProt P25099); assay: Adenosine Receptor Binding - A1 Receptor Affinity (RBA1), [3H]-CHA displacement; conditions: rat whole brain membranes, one hour at 25°C
T1 construct: brain minus cerebellum and brainstem from male Long Evans rats (150-200 g) was homogenized; from tissue; host or cells: rat whole brain minus cerebellum and brainstem, membrane homogenate
T1 sequence (P25099 1-326): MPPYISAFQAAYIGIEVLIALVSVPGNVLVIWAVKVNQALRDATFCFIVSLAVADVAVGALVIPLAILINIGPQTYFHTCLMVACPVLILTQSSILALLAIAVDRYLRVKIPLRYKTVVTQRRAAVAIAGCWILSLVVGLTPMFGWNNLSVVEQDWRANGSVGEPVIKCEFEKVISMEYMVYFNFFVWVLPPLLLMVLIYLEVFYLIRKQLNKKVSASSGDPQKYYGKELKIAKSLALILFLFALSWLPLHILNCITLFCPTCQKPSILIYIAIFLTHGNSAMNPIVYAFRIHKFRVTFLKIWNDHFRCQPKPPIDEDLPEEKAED
Experimental: While brain minus cerebellum and brainstem from male Long Evans rats (150-200 g) was homogenized in 30 volumes of ice-cold 0.05 M Tris-CHI buffer pH 7.7 using a Brinkman Polytron PT-10, (setting number 6 for 20 seconds) and centrifuged for ten minutes at 20,000 x g (Sorvall RC-2), 4°C. The supernatant was discarded, and the pellet was resuspended and centrifuged as before. The pellet was resuspended in 20 ml Tris-HCI buffer containing two International Units/ml of adenosine deaminase (Sigma type III from calf intestinal mucosa), incubated at 37°C for 30 minutes, then subsequently at 0°C for ten minutes. The homogenate was again centrifuged, and the final pellet was resuspended in ice-cold 0.05 M Tris-HCI buffer pH 7.7 to a concentration of 20 mg/ml original wet tissue weight and used immediately.
Tissue homogenate (10 mg/ml) was incubated in 0.05 M Tris-HCI buffer pH 7.7 containing 1.0 nM (^3H]-N^e-cyclohexyladenosine ([^3H]-CHA) with or without tests agents in triplicate for one hour at 25°C. Incubation volume was 2 ml. Unbound [^3H]-CHA was separated by rapid filtration under reduced pressure through Whatman glass fiber (GF/B) filters. The filters were rinsed three times with 5 ml of ice cold 0.05 M Tris-HCI buffer pH 7.7. The radio-labeled ligand retained on the filter was measured by liquid scintillation spectrophotometry after shaking the filters for one hour or longer on a mechanical shaker in 10 ml of Beckman Ready-Solv HP scintillation cocktail.
Nonspecific binding was defined as the binding which occurred in the presence of 1 mM theophylline. […] The Scatchard plot was calculated by linear regression of the line obtained by plotting the amount of radioligand bound (pmoles/gram of tissue) [formula] Since the amount of radioligand bound was a small fraction of the total amount added, free radioligand was defined as the concentration (nM) of radioligand added to the incubation mixture. The Hill coefficient was calculated by linear regression of the line obtained by plotting the log of the bound radioligand vs the log of the [formula] The maximal number of binding sites (Bmax) was calculated from the Scatchard plot.

adenosine A2 receptor = target: T2, adenosine A2 receptor (Rattus norvegicus, UniProt P30543); assay: Adenosine Receptor Binding - A2 Receptor Affinity (RBA2), [3H]NECA displacement; conditions: 4 nM [3H]NECA with 50 nM N6-cyclopentyladenosine, rat striatal membranes, 60 minutes at 25°C; read-out: Receptor Binding RBA—2
T2 construct: Brains were thawed and then kept on ice while the striata were dissected out; tissue Pel-Freez (Rogers, Arkansas); host or cells: rat striatum, membranes
T2 sequence (P30543 whole entry): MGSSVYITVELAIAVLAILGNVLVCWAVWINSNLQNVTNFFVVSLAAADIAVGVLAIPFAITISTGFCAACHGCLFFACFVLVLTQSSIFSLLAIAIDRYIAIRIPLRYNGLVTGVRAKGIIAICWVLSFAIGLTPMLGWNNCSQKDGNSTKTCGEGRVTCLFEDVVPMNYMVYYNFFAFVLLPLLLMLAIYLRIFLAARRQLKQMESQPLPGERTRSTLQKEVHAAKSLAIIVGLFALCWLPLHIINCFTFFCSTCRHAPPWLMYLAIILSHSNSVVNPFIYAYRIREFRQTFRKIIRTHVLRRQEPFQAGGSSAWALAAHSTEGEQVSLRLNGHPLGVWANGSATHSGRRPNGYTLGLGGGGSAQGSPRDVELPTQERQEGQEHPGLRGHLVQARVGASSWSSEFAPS
Experimental: Brains from 200-500 g mixed sex Sprague-Dawley rats were purchased from Pel-Freez (Rogers, Arkansas). Fresh brains from male Long-Evans hooded rats (Blue Spruce Farms, Altamont, NY) gave essentially indentical results. Brains were thawed and then kept on ice while the striata were dissected out. Striata were disrupted in 10 vol of ice-cold 50 mM Tris.HCI (pH 7.7 at 25°C, pH 8.26 at 5°C) (Tris) for 30 seconds in a Polytron PT―10 (Brinkmann) at setting 5. The suspension was centrifuged at 50,000 xg for ten minutes, the supernatant discarded, the pellet resuspended in 10 vol ice-cold Tris as above, recentrifuged, resuspended at 1 g/5 ml, and stored in plastic vials at -70°C (stable for at least six months). When needed, tissue was thawed at room temperature, disrupted in a Polytron, and kept on ice until used.
All incubations were for 60 minutes at 25°C in 12x75 mm glass tubes containing 1 ml Tris with 5 mg original tissue weight of rat weight of rat striatal membranes, 4 nM [^3H]-N-ethyl adenosine-5'-carboxamide ([^3H]NECA), 50 nM N^6-cyclopentyladenosine (to eliminate A1 receptor binding), 10 mM MgCl2, 0.1 units/ml, of adenosine deaminase and 1% dimethylsulfoxide. N^6-Cyclopentyladenosine was dissolved at 10 mM in 0.02 N HCI and diluted in Tris. Stock solutions and dilutions of N^6-cyclopentyladenosine could be stored at -20°C for several months. Test compounds were dissolved at 10 mM in dimethylsulfoxide or the same day as the experiment, and diluted in dimethylsulfoxide to 100x the final incubation concentration. Control incubations received an equal volume (10 µl) of dimethylsulfoxide; the resulting concentration of dimethylsulfoxide had no effect on binding. [^3H]NECA was diluted to 40 nM in Tris. The membrane suspension (5 mg/0.79 ml) contained sufficient MgCl2 and adenosine deaminase to give 10 mM and 0.1 units/ml, respectively, final concentration in the incubation. […] After all additions, the rack of tubes was vortexed, and the tubes were then incubated for 60 min at 25°C in a shaking water bath. The rack of tubes was vortexed an additonal time halfway through the incubation.
Incubations were terminated by filtration through 2.4 cm GF/B filters under reduced pressure. Each tube was filtered as follows: the contents of the tube were poured onto the filter, 4 ml of ice-cold Tris were added to the tube and the contents poured onto the filter, and the filter was washed twice with 4 ml of ice-cold Tris. The filtration was complete in about twelve seconds. Filters were put in scintillation vials, 8 ml of Formula 947 scintillation fluid added, and the vials left overnight, shaken, and counted in a liquid scintillation counter at 40% efficiency.
Nonspecific binding was defined as binding in the presence of […] N^6-cyclopentyladenosine, and specific binding was defined as total binding minus nonspecific binding. The IC50 was calculated by weighted nonlinear least squares curve-fitting to the mass-action equation. [formula] • where Y is cpm bound T is cpm total binding without drug S is cpm specific binding without drug D is the concentration of drug • and K is the IC50 of the drug Weighting factors were calculated under the assumption that the standard deviation was proportional to the predicted value of Y. Nonspecific binding was treated as a very large (infinite) concentration of drug in the computer analysis.

male Swiss-Webster mice = assay: Antiwrithing (AW) test, acetic acid induced writhing; format: in vivo; conditions: Mus musculus, ip; administered intraperitoneally to mice; read-out: ED50 (dose necessary to suppress writhing by 50% relative to vehicle controls)
[1] = test system: Long-Evans rats or squirrel-monkeys; assay: Conditioned avoidance of electric footshock by lever pushing (SIDR); format: in vivo
Experimental: A representative compound of the invention (identified in the Example 5) was also tested for antipsychotic activity according to the following protocol (SIDR). The noted compound has the indicated EDso values (mg/kg) and is considered active as an antipsychotic agent in the test procedure.
Mature male Long-Evans rats or squirrel-monkeys are conditioned to push a lever in order to avoid a painful electric footshock. If the animal fails to push the lever, he receives a shock every ten seconds until the lever is pushed. Shocks can be terminated by pushing the lever. Thereafter, as long as the lever is pushed at least once every 20 seconds, there will be no shock.
Each animal acts as its own control; one weekly session is used to establish baseline behavior and another session later in the week is used as a drug session. Once patterns of avoidance are established, the effects of standard and unknown compounds are studied.

[2] = 1.0 nM [3H]-CHA, read-out: Receptor Binding RBA—1
[3] = Receptor Binding RBA—1, 1.0 nM [3H]-CHA

IC50 (adenosine A1 receptor; [2])	Structure (SMILES)	IC50 (adenosine A2 receptor)	ED50 (male Swiss-Webster mice)	IC50 (adenosine A1 receptor; [3])	ED50 ([1]; Rattus norvegicus, species of the result not stated (rats or squirrel-monkeys), read-out: ED50 for blockade of avoidance)	response for blockade of escape ([1]; at 4 mg/kg)
607 nM	CC(=O)O[C@@H]1[C@H](OC(C)=O)[C@@H](C)O[C@H]1n1cnc2c(NC3CCCc4ccccc43)ncnc21 (stereo partly shown) [Example 22, N^6-1-Tetralinyl-2' ,3'-di-O-acetyl-5'-deoxyadenosine]					
1680 nM	C[C@H]1O[C@@H](n2cnc3c(NC4CCc5ccccc54)ncnc32)[C@H](O)[C@@H]1O (stereo partly shown) [Example 2, N^6-[1-Indanyl]-5'-deoxyadenosine]	21200 nM				
13 nM	CSC[C@H]1O[C@@H](n2cnc3c(NC4CCCC4)ncnc32)[C@H](O)[C@@H]1O [Example 10, N^6-[Cyclopentyl]-5'-deoxy-5'-thiomethyladenosine]	7200 nM				
52 nM	C[C@H]1O[C@@H](n2cnc3c(NC4CCCCC4)ncnc32)[C@H](O)[C@@H]1O [Example 6, N^6-[Cyclohexyl]-5'-deoxyadenosine]	21400 nM				
1.2 nM	O[C@@H]1[C@H](O)[C@@H](CCl)O[C@H]1n1cnc2c(NC3CCCC3)ncnc21 [Example 18, N^6-[Cyclopentyl]-5'-deoxy-5'-chloroadenosine]	2800 nM				
	CSC[C@H]1O[C@@H](n2cnc3c(NC4CCCCC4)ncnc32)[C@H](O)[C@@H]1O [Example 9, N^6-[Cyclohexyl]-5'-deoxy-5'-thiomethyladenosine]	7400 nM		9 nM		
218 nM	O[C@@H]1[C@H](O)[C@@H](CCl)O[C@H]1n1cnc2c(NC3CCc4ccccc43)ncnc21 (stereo partly shown) [Example 14, N^6-[1-Indanyl]-5'-deoxy-5'-chloroadenosine]	8650 nM				
	CSC[C@H]1O[C@@H](n2cnc3c(N[C@H](C)Cc4ccccc4)ncnc32)[C@H](O)[C@@H]1O [Example 7, (R)-N^6[Phenylisopropyl]-5'-deoxy-5'-thiomethyladenosine]	6300 nM		51 nM		
	CSC[C@H]1O[C@@H](n2cnc3c(NC4CCc5ccccc54)ncnc32)[C@H](O)[C@@H]1O (stereo partly shown) [Example 12, N^6-[1-Indanyl]-5'-deoxy-5'-thiomethyladenosine]	58200 nM	3 mg/kg	1490 nM		
	CSC[C@H]1O[C@@H](n2cnc3c(N[C@@H](C)Cc4ccccc4)ncnc32)[C@H](O)[C@@H]1O [Example 8, (S)-N^6-[Phenylisopropyl]-5'-deoxy-5'-thiomethyladenosine]	44000 nM		700 nM		
53 nM	O[C@@H]1[C@H](O)[C@@H](CCl)O[C@H]1n1cnc2c(NCC(c3ccccc3)c3ccccc3)ncnc21 [Example 13, N^6-[2,2-Diphenylethyl]-5'-deoxy-5'-chloroadenosine]	240 nM				
	CSC[C@H]1O[C@@H](n2cnc3c(NCC(c4ccccc4)c4ccccc4)ncnc32)[C@H](O)[C@@H]1O [Example 11, N^6-[2,2-Diphenyl]-5'-deoxy-5'-thiomethyladenosine]	2000 nM		660 nM		
2 nM	O[C@@H]1[C@H](O)[C@@H](CCl)O[C@H]1n1cnc2c(NC3CCCCC3)ncnc21 [Example 17, N^6-[Cyclohexyl]-5' -deoxy-5' -chloro-adenosine]	2700 nM				

Structure (SMILES)	IC50 (adenosine A1 receptor; [2])	IC50 (adenosine A2 receptor)	ED50 (male Swiss-Webster mice)	IC50 (adenosine A1 receptor; [3])	ED50 ([1]; Rattus norvegicus, species of the result not stated (rats or squirrel-monkeys), read-out: ED50 for blockade of avoidance)	response for blockade of escape ([1]; at 4 mg/kg)
CC(=O)O[C@@H]1[C@H](OC(C)=O)[C@@H](C)O[C@H]1n1cnc2c(NCc3cccc4ccccc34)ncnc21 [Example 21, N^6-a-Naphthylmethyl-2',3'-di-O-acetyl-5'-deoxyadenosine]	2520 nM					
C[C@H]1O[C@@H](n2cnc3c(NCC(c4ccccc4)c4ccccc4)ncnc32)[C@H](O)[C@@H]1O [Example 1, N^s-[2,2-Diphenylethyl]-5'-deoxyadenosine]	227 nM	1110 nM				
C[C@H](Cc1ccccc1)Nc1ncnc2c1ncn2[C@@H]1O[C@H](CCl)[C@@H](O)[C@H]1O [Example 15, (R)-N^6-[Phenylisopropyl]-5'-deoxy-5'-chloro-adenosine]	3 nM	1600 nM	1.8 mg/kg			
C[C@H](Cc1ccccc1)Nc1ncnc2c1ncn2[C@@H]1O[C@H](C)[C@@H](O)[C@H]1O [Example 3]	40 nM	5700 nM				
C[C@@H](Cc1ccccc1)Nc1ncnc2c1ncn2[C@@H]1O[C@H](CCl)[C@@H](O)[C@H]1O [Example 16, (S)-N^6-[Phenylisopropyl]-5'-deoxy-5'-chloroadenosine]	35 nM	7900 nM				
C[C@H]1O[C@@H](n2cnc3c(NC4CCCC4)ncnc32)[C@H](O)[C@@H]1O [Example 5, N^6-[Cyclopentyl]-5'-deoxyadenosine]	16 nM	17200 nM	0.9 mg/kg		2.8 mg/kg	10%
C[C@@H](Cc1ccccc1)Nc1ncnc2c1ncn2[C@@H]1O[C@H](C)[C@@H](O)[C@H]1O [Example 4, (S)-N^6-[Phenylisopropyl]-5'-deoxyadenosine]	556 nM	20000 nM				
